Measured values: patent US10723695B2, “Microbiocidal phenylamidine derivatives” (SYNGENTA PARTICIPATIONS AG, priority 2015, dated 2020)

Key:
[1] = system: Puccinia recondita f. sp. tritici; experiment: Puccinia recondita f. sp. tritici / wheat / leaf disc curative (brown rust); format: in vivo; details: foliar, 24 h, wheat leaf segments cv. Kanzler, curative (applied 1 day after inoculation), compared to untreated control leaf disks, read-out: disease control
Protocol: Puccinia recondita f. sp. tritici/Wheat/Leaf Disc Curative (Brown Rust) Wheat leaf segments cv. Kanzler are placed on agar in multiwell plates (24-well format). The leaf segments are inoculated with a spore suspension of the fungus. Plates were stored in darkness at 19° C. and 75% rh. The formulated test compound diluted in water was applied 1 day after inoculation.

[2] = system: Blumeria graminis f. sp. tritici (Erysiphe graminis f. sp. tritici); experiment: Blumeria graminis f. sp. tritici / wheat / leaf disc preventative (powdery mildew on wheat); format: in vivo; details: foliar, wheat leaf segments cv. Kanzler, compared to untreated control leaf disks, read-out: disease control
Description: Blumeria graminis f. sp. tritici (Erysiphe graminis f. sp. tritici)/Wheat/Leaf Disc Preventative (Powdery Mildew on Wheat) Wheat leaf segments cv. Kanzler were placed on agar in a multiwell plate (24-well format) and sprayed with the formulated test compound diluted in water. The leaf disks were inoculated by shaking powdery mildew infected plants above the test plates 1 day after application.

[3] = system: Puccinia recondita f. sp. tritici; experiment: Puccinia recondita f. sp. tritici / wheat / leaf disc preventative (brown rust); format: in vivo; details: foliar, wheat leaf segments cv. Kanzler, compared to untreated control leaf disks, read-out: disease control
Protocol: Puccinia recondita f. sp. tritici/Wheat/Leaf Disc Preventative (Brown Rust) Wheat leaf segments cv. Kanzler were placed on agar in multiwell plates (24-well format) and sprayed with the formulated test compound diluted in water. The leaf disks were inoculated with a spore suspension of the fungus 1 day after application. The inoculated leaf segments were incubated at 19° C. and 75% rh under a light regime of 12 h light/12 h darkness in a climate cabinet and the activity of a compound was assessed as percent disease control compared to untreated when an appropriate level of disease damage appears in untreated check leaf segments (7-9 days after application).

Phakopsora pachyrhizi = Phakopsora pachyrhizi / soybean / leaf disk preventative (soybean rust); format: in vivo; details: foliar, soybean leaf disks, compared to untreated control leaf disks, read-out: disease control
Protocol: Phakopsora pachyrhizi/Soybean/Leaf Disk Preventative (Soybean Rust) Four-week old soybean plants are sprayed in a spray chamber with the formulated test compound diluted in water. Leaf disks are cut from treated plants and placed on agar into 24-well plates one day after application. Leaf disks are inoculated by spraying them with a spore suspension on their lower leaf surface. After an incubation period in a climate cabinet of 24-36 hours in darkness at 20° C. and 75% rh, the leaf disks are then kept at 20° C. with 12 h light/day and 75% rh. The percentage leaf disk area covered by disease is assessed when an appropriate level of disease appears on untreated check plants (12-14 days after application).

| melting point [°C] | SMILES | pest or weed control at 200 ppm [1] [%] | pest or weed control at 200 ppm [2] [%] | pest or weed control at 200 ppm [3] [%] | pest or weed control at 200 ppm (Phakopsora pachyrhizi) [%] |
| --- | --- | --- | --- | --- | --- |
| 160 to 165 | CCN(C)/C=N/c1cc(SC)c(C(O)(c2ccccc2)C(F)(F)F)cc1C (stereo not drawn) [Compound E1.113] | ≥ 80 | ≥ 80 |  |  |
| 119 to 121 | COc1cc(/N=C/N(C)C(C)C)c(C)cc1C(O)(c1c(F)cccc1F)C(F)(F)F (stereo not drawn) [Compound E1.148] |  |  |  |  |
| 110 to 112 | COc1cc(/N=C/N(C)C(C)C)c(C)cc1C(O)(c1cc(F)cc(F)c1)C(F)(F)F (stereo not drawn) [Compound E1.149] |  |  |  |  |
| 102 to 104 | COc1cc(/N=C/N2CCCC2)c(C)cc1C(O)(C(C)C)C(F)(F)F (stereo not drawn) [Compound E1.135] |  |  |  |  |
| 107 to 109 | CCN(C)/C=N/c1cc(OC)c(C(O)(c2cccc(F)c2C)C(F)(F)F)cc1C (stereo not drawn) [Compound E1.132] |  |  |  |  |
| 240 to 242 | CCN(C)/C=N/c1cc(OC)c(C(O)(c2ccc(O)cc2)C(F)(F)F)cc1C (stereo not drawn) [Compound E1.043] | ≥ 80 | ≥ 80 |  |  |
| 60 to 62 | CCN(/C=N/c1cc(OC)c(C(O)(C(C)C)C(F)(F)F)cc1C)CC (stereo not drawn) [Compound E1.133] |  |  |  |  |
| 119 to 120 | CCN(C)/C=N/c1cc(OC(C)C)c(C(O)(c2ccccc2)C(F)(F)F)cc1C (stereo not drawn) [Compound E1.115] |  |  |  |  |
| 86 to 88 | COc1cc(/N=C/N(C)C(C)C)c(C)cc1C(O)(c1ccccc1F)C(F)(F)F (stereo not drawn) [Compound E1.150] |  |  |  |  |
| 130 to 132 | CCN(C)/C=N/c1cc(OC)c(C(O)(c2cccc(F)c2F)C(F)(F)F)cc1C (stereo not drawn) [Compound E1.143] |  |  |  |  |
| 62 to 64 | CCN(C)/C=N/c1cc(OC)c(C(O)(C#CC2CCCCC2)C(F)(F)F)cc1C (stereo not drawn) [Compound E1.085] | ≥ 80 |  |  |  |
| 108 to 110 | CCN(C)/C=N/c1cc(OC)c(C(O)(c2ccc(F)c(F)c2)C(F)(F)F)cc1C (stereo not drawn) [Compound E1.128] |  |  |  |  |
| 127 to 129 | COc1cc(/N=C/N(C)C(C)C)c(C)cc1C(O)(c1cccc(F)c1C)C(F)(F)F (stereo not drawn) [Compound E1.131] |  |  |  |  |
| 144 to 146 | CCN(C)/C=N/c1cc(OC)c(C(O)(c2ccccc2)C(F)(F)F)cc1F (stereo not drawn) [Compound E1.153] |  |  |  |  |
| 113 to 115 | CCN(C)/C=N/c1cc(OC)c(C(O)(c2cccnc2F)C(F)(F)F)cc1C (stereo not drawn) [Compound E1.157] |  |  |  |  |
| 67 to 69 | COc1cc(/N=C/N(C)C(C)C)c(C)cc1C(O)(c1ccccc1Cl)C(F)(F)F (stereo not drawn) [Compound E1.151] |  |  |  |  |
| 116 to 118 | COc1cc(/N=C/N(C)C(C)C)c(C)cc1C(O)(c1ccc(F)c(F)c1)C(F)(F)F (stereo not drawn) [Compound E1.127] |  |  |  |  |
| 157 to 159 | COc1cc(/N=C/N2CCCC2)c(C)cc1C(O)(c1ccccc1)C(F)(F)F (stereo not drawn) [Compound E1.135] |  |  |  |  |
| 102 to 104 | CCN(/C=N/c1cc(OC)c(C(O)(c2ccccc2)C(F)(F)F)cc1C)CC (stereo not drawn) [Compound E1.139] |  |  |  |  |
| 77 to 79 | COc1cc(/N=C/N(C)C(C)C)c(C)cc1C(O)(C=C(C)C)C(F)(F)F (stereo not drawn) [Compound E1.141] |  |  |  |  |
|  | CCN(C)/C=N/c1cc(OC)c([C@](O)(c2ccccc2)C(F)(F)F)cc1C [Compound E1.014] | ≥ 80 | ≥ 80 | ≥ 80 | ≥ 80 |
|  | CCN(C)/C=N/c1cc(OC)c(C(O)(C=C(C)C)C(F)(F)F)cc1C (stereo not drawn) [Compound E1.076] | ≥ 80 | ≥ 80 | ≥ 80 | ≥ 80 |
|  | CCN(C)/C=N/c1cc(OC)c(C(O)(c2ccccc2)C(F)F)cc1C (stereo not drawn) [Compound E1.005] | ≥ 80 | ≥ 80 | ≥ 80 | ≥ 80 |

| melting point [°C] | SMILES | pest or weed control at 200 ppm [1] [%] | pest or weed control at 200 ppm [2] [%] | pest or weed control at 200 ppm [3] [%] | pest or weed control at 200 ppm (Phakopsora pachyrhizi) [%] |
| --- | --- | --- | --- | --- | --- |
|  | CCN(C)/C=N/c1cc(OC)c(C(O)(c2ccccc2)C(F)(F)Cl)cc1C (stereo not drawn) [Compound E1.122] | ≥ 80 | ≥ 80 | ≥ 80 | ≥ 80 |
| 116 to 118 | COc1cc(/N=C/N(C)C(C)C)c(C)cc1C(O)(c1cc(F)ccc1C)C(F)(F)F (stereo not drawn) [Compound E1.146] |  |  |  |  |
|  | CCCCC(O)(c1cc(C)c(/N=C/N(C)C(C)C)cc1OC)C(F)(F)F (stereo not drawn) [Compound E1.053] | ≥ 80 | ≥ 80 | ≥ 80 | ≥ 80 |
| 97 to 99 | COc1cc(/N=C/N(C)C(C)C)c(C)cc1C(O)(c1cccc(F)c1F)C(F)(F)F (stereo not drawn) [Compound E1.144] |  |  |  |  |
| 92 to 94 | COc1cc(/N=C/N(C)C(C)C)c(C)cc1C(O)(c1cccc(F)c1)C(F)(F)F (stereo not drawn) [Compound E1.152] |  |  |  |  |
|  | CCN(C)/C=N/c1cc(OC)c(C(O)(Cn2ncc3ccccc32)C(F)(F)F)cc1C (stereo not drawn) [Compound E1.093] | ≥ 80 | ≥ 80 | ≥ 80 | ≥ 80 |
|  | C#CCC(O)(c1cc(C)c(/N=C/N(C)CC)cc1OC)C(F)(F)F (stereo not drawn) [Compound E1.083] | ≥ 80 | ≥ 80 | ≥ 80 | ≥ 80 |
| 112 to 115 | COc1cc(/N=C/N(C)C(C)C)c(C)cc1C(O)(c1cc(F)ccc1F)C(F)(F)F (stereo not drawn) [Compound E1.135] |  |  |  |  |
|  | CCN(C)/C=N/c1cc(OC)c(C(O)(C(C)C)C(F)(F)Cl)cc1C (stereo not drawn) [Compound E1.119] | ≥ 80 | ≥ 80 | ≥ 80 | ≥ 80 |
|  | CCN(C)/C=N/c1cc(OC)c(C(O)(C(C)C)C(F)(F)F)cc1C (stereo not drawn) [Compound E1.054, N-ethyl-N′-[4-[1-hydroxy-2-methyl-1-(trifluoromethyl)propyl]-5-methoxy-2-methyl-phenyl]-N-methyl-formamidine] | ≥ 80 | ≥ 80 | ≥ 80 | ≥ 80 |
| 120 to 122 | COc1cc(/N=C/N(C)C(C)C)c(C)cc1C(O)(c1cccnc1F)C(F)(F)F (stereo not drawn) [Compound E1.158] |  |  |  |  |
|  | CCN(C)/C=N/c1cc(OC)c(C(O)(c2ccccc2OC)C(F)(F)F)cc1C (stereo not drawn) [Compound E1.030] | ≥ 80 | ≥ 80 | ≥ 80 | ≥ 80 |
|  | C=C(C)CC(O)(c1cc(C)c(/N=C/N(C)CC)cc1OC)C(F)(F)F (stereo not drawn) [Compound E1.075] | ≥ 80 | ≥ 80 | ≥ 80 | ≥ 80 |
|  | CCN(C)/C=N/c1cc(OC)c(C(O)(CCC(C)C)C(F)(F)F)cc1C (stereo not drawn) [Compound E1.068] | ≥ 80 | ≥ 80 | ≥ 80 | ≥ 80 |
|  | CCN(C)/C=N/c1cc(OC)c(C(O)(C2CCC(C)(C)CC2)C(F)(F)F)cc1C (stereo not drawn) [Compound E1.061] | ≥ 80 | ≥ 80 | ≥ 80 | ≥ 80 |
| 95 to 97 | CCN(C)/C=N/c1cc(OC)c(C(O)(c2cc(F)ccc2C)C(F)(F)F)cc1C (stereo not drawn) [Compound E1.145] |  |  |  |  |
|  | CCN(C)/C=N/c1cc(OC)c(C(O)(Cc2ccccc2)C(F)(F)F)cc1C (stereo not drawn) [Compound E1.086] | ≥ 80 | ≥ 80 | ≥ 80 | ≥ 80 |
|  | CCN(C)/C=N/c1cc(OC)c(C(O)(C2CCCC2)C(F)(F)F)cc1C (stereo not drawn) [Compound E1.050] | ≥ 80 | ≥ 80 | ≥ 80 | ≥ 80 |
| 138 to 140 | COc1cc(/N=C/N(C)C(C)C)c(C)cc1C(O)(c1ccccc1C)C(F)(F)F (stereo not drawn) [Compound E1.148] |  |  |  |  |
| 128 to 130 | CCN(C)/C=N/c1cc(OC)c(C(O)(c2c(F)cccc2F)C(F)(F)F)cc1C (stereo not drawn) [Compound E1.147] |  |  |  |  |
| 103 to 105 | CCCCC(O)(c1cc(C)c(/N=C/N2CCCC2)cc1OC)C(F)(F)F (stereo not drawn) [Compound E1.134] |  |  |  |  |
| 133 to 135 | COc1cc(/N=C/N(C)C)c(C)cc1C(O)(c1ccccc1)C(F)(F)F (stereo not drawn) [Compound E1.137] |  |  |  |  |
|  | CCN(C)/C=N/c1cc(OC)c(C(O)(C2CCC2)C(F)(F)F)cc1C (stereo not drawn) [Compound E1.069] | ≥ 80 | ≥ 80 | ≥ 80 | ≥ 80 |
